Laboratory results published in patent US20240090503A1, “FUNGICIDAL OXADIAZOLES AND THEIR MIXTURES” (FMC CORPORATION, priority 2020, published 2024).

Legend:
[1] = tested on: Phakopsora pachyrhizi (the causal agent of Asian soybean rust); experiment: Test A: preventive spray on soybean seedlings, Asian soybean rust, visual disease rating; format: in vivo; details: soybean seedlings
Excerpt: (§1) General protocol for preparing test suspensions for Tests A-D: the test compounds were first dissolved in acetone in an amount equal to 3% of the final volume and then suspended at the desired concentration (in ppm) in acetone and purified water (50/50 mix by volume) containing 250 ppm of the surfactant PEG400 (polyhydric alcohol esters). The resulting test suspensions were then used in Tests A-D.
(§2) The test suspension was sprayed to the point of run-off on soybean seedlings. The following day the seedlings were inoculated with a spore suspension of Phakopsora pachyrhizi (the causal agent of Asian soybean rust) and incubated in a saturated atmosphere at 22° C. for 24 h and then moved to a growth chamber at 22° C. for 8 days, after which time visual disease ratings were made.
(§3) The test results for Tests A-C presented in Table A below for compounds of Formula 1 illustrate the fungicidal activity of component (a) contributing to the plant disease control utility of compositions comprising component (a) in combination with component (b) according to the present invention. In the Table, a rating of 100 indicates 100% disease control and a rating of 0 indicates no disease control (relative to the controls). A dash (-) indicates the compound was not tested. The test suspensions were sprayed at the concentration listed in the column “Rate in ppm”, unless otherwise indicated. An asterisk “*” next to the rating indicates a 250 ppm test suspension was used, a double asterisk “**” next to the rating indicates a 100 ppm test suspension was used, and a triple asterisk “***” next to the rating indicates a 50 ppm test suspension was used.

[2] = tested on: Puccinia recondita f. sp. tritici (the causal agent of wheat leaf rust); experiment: Test C: preventive spray on wheat seedlings, wheat leaf rust, visual disease rating; format: in vivo; details: wheat seedlings
Excerpt: as §1
as §2, with “on wheat” for “on soybean”, “of Puccinia recondita f. sp. tritici;” for “of Phakopsora pachyrhizi”, “of wheat leaf” for “of Asian soybean”, “at 20°” for “at 22°”, “24 h,” for “24 h”, “for 6” for “for 8”
as §3

[3] = 10 ppm test suspension, 100 = 100% disease control, 0 = no control
[4] = test suspension 10 ppm, 100 = 100% disease control, 0 = no control
[5] = 50 ppm test suspension, 100 = 100% disease control, 0 = no control

| SMILES | Test A disease control rating [1, 3] [%] | Test C disease control rating [2, 3] [%] | Test A disease control rating [1, 4] [%] | Test C disease control rating ([2]; test suspension 10 ppm) [%] | further results |
| --- | --- | --- | --- | --- | --- |
| C=CCOC(=O)c1cnn(Cc2cc(OC)c(-c3noc(C(F)(F)F)n3)s2)c1 [compound 440] | 0 | 0 | – | – | – |
| CCOC(=O)c1cnn(Cc2ccc(-c3noc(C(F)(F)F)n3)cn2)c1 [compound 424] | 100 | 96 | – | – | – |
| CCCOC(=O)c1cnn(C(C)c2ccc(-c3noc(C(F)(F)F)n3)s2)c1 (stereo not drawn) [compound 249] | – | – | 100 | 100 | – |
| CCOC(=O)c1c(C)nn(Cc2ccc(-c3noc(C(F)(F)F)n3)cc2)c1C [compound 66] | – | – | – | – | Test A disease control rating ([1]; test suspension 255 ppm): 100%; Test C disease control rating ([2]; test suspension 255 ppm): 100% |
| CCOC(=O)c1cnn(C[S+]([O-])Cc2ccc(-c3noc(C(F)(F)F)n3)cc2)c1 (stereo not drawn) [compound 242] | – | – | 100 | 99 | – |
| N#Cc1cccc2c1cnn2Cc1ccc(-c2noc(C(F)(F)F)n2)cc1 [compound 105] | – | – | – | – | Test A disease control rating ([1]; test suspension 50 ppm): 100%; Test C disease control rating ([2]; test suspension 50 ppm): 100% |
| N#Cc1ccc2c(cnn2Cc2ccc(-c3noc(C(F)(F)F)n3)s2)c1 [compound 194] | – | – | 100 | 100 | – |
| CCCCON=C(C)COC(=O)c1cnn(Cc2ccc(-c3noc(C(F)(F)F)n3)cc2)c1 [compound 219] | – | – | 100 | 86 | – |
| Cc1c2cc(Br)ccc2nn1Cc1ccc(-c2noc(C(F)(F)F)n2)cc1 [compound 52] | – | – | 99 | 80 | – |
| FC(F)(F)c1nc(-c2ccc(Cn3cc4c(I)ccnc4n3)cc2)no1 [compound 445] | 100 | 99 | – | – | – |
| CCCOC(=O)c1cnn(Cc2ccc3cc(-c4noc(C(F)(F)F)n4)ccc3c2)c1 [compound 416] | – | – | – | – | Test A disease control rating [1, 5]: 77%; Test C disease control rating [2, 5]: 0% |
| Nc1ccc2c(cnn2Cc2ccc(-c3noc(C(F)(F)F)n3)cc2)c1 [compound 115] | – | – | 98 | 95 | – |
| Cc1cccc2cn(Cc3ccc(-c4noc(C(F)(F)F)n4)cc3)nc12 [compound 103] | – | – | 100 | 97 | – |
| CNC(=O)c1cnn(CCCc2ccc(-c3noc(C(F)(F)F)n3)cc2)c1 [compound 415] | 100 | 96 | – | – | – |
| Cc1cccc2nn(Cc3ccc(-c4noc(C(F)(F)F)n4)cc3)cc12 [compound 102] | – | – | 100 | 99 | – |
| FC(F)(F)c1nc(-c2ccc(Cn3ccc(S(F)(F)(F)(F)F)n3)cc2)no1 [compound 503] | 43 | 0 | – | – | – |
| C[Si](C)(C)C#CCOC(=O)c1cnn(Cc2ccc(-c3noc(C(F)(F)F)n3)cc2)c1 [compound 348] | – | – | 100 | 96 | – |
| Cc1cc2c(cnn2Cc2ccc(-c3noc(C(F)(F)F)n3)cc2)cc1Br [compound 32] | – | – | 96 | 68 | – |
| CCOC(=O)c1cc(C(C)C)n(Cc2ccc(-c3noc(C(F)(F)F)n3)cc2)n1 [compound 80] | – | – | 100 | 68 | – |
| O=C(OCC1CC1)c1cnn(Cc2ccc(-c3noc(C(F)(F)F)n3)cc2)c1 [compound 411] | 100 | 100 | – | – | – |
| CCCOC(=O)c1cnn(Cc2cc(OC)c(-c3noc(C(F)(F)F)n3)s2)c1 [compound 439] | 0 | 0 | – | – | – |

| SMILES | Test A disease control rating [1, 3] [%] | Test C disease control rating [2, 3] [%] | Test A disease control rating [1, 4] [%] | Test C disease control rating ([2]; test suspension 10 ppm) [%] | further results |
| --- | --- | --- | --- | --- | --- |
| CC(C#N)OC(=O)c1cnn(Cc2ccc(-c3noc(C(F)(F)F)n3)cc2)c1 (stereo not drawn) [compound 300] | – | – | 94 | 9 | – |
| CCOC(=O)c1cc(CC)n(Cc2ccc(-c3noc(C(F)(F)F)n3)cc2)n1 [compound 79] | – | – | 100 | 68 | – |
| CCOC(=O)c1cc(C)n(Cc2ccc(-c3noc(C(F)(F)F)n3)cc2)n1 [Compound 110, ethyl 5-methyl-1-[[4-[5-(trifluoromethyl)-1,2,4-oxadiazol-3-yl]phenyl]methyl]-1H-pyrazole-3-carboxylate] | – | – | – | – | pest or weed control at 10 µg/mL ([1]; Phakopsora pachyrhizi, 216 h, test suspension 10 ppm, 100 = 100% disease control, 0 = no control, read-out: Test A disease control rating): 100%; pest or weed control at 10 µg/mL ([2]; Puccinia recondita, 168 h, test suspension 10 ppm, read-out: Test C disease control rating): 91% |
| N#CC1(NC(=O)c2cnn(Cc3ccc(-c4noc(C(F)(F)F)n4)cc3)c2)CC1 [compound 173] | – | – | 100 | 96 | – |
| CC(=O)NN=Cc1cnn(Cc2ccc(-c3noc(C(F)(F)F)n3)cc2)c1 [compound 389] | 100 | 100 | – | – | – |
| CCCON=Cc1cnn(Cc2ccc(-c3noc(C(F)(F)F)n3)cc2)c1 [compound 385] | 100 | 100 | – | – | – |
| C#CCNC(=O)C1=NOC(Cc2ccc(-c3noc(C(F)(F)F)n3)s2)C1 (stereo not drawn) [compound 429] | – | – | – | – | Test A disease control rating [1, 5]: 100%; Test C disease control rating [2, 5]: 100% |
| O=C(OCCCl)c1cnn(Cc2ccc(-c3noc(C(F)(F)F)n3)cc2)c1 [compound 477] | 100 | 100 | – | – | – |
| COC(=O)c1nccn(Cc2ccc(-c3noc(C(F)(F)F)n3)cc2)c1=O [compound 423] | 86 | 80 | – | – | – |
| CNC(=O)C1=NOC(Cc2ccc(-c3noc(C(F)(F)F)n3)s2)C1 (stereo not drawn) [compound 368] | – | – | – | – | Test A disease control rating ([1]; test suspension 50 ppm): 100%; Test C disease control rating ([2]; test suspension 50 ppm): 100% |
| Cc1cc(C(=O)OCC#N)nn1Cc1ccc(-c2noc(C(F)(F)F)n2)cc1 [compound 185] | – | – | 100 | 98 | – |
| C=CCOC(=O)c1cnn(Cc2ccc(-c3noc(C(F)(F)F)n3)s2)c1 [compound 199] | – | – | 100 | 100 | – |
| O=[N+]([O-])c1ccc2c(c1)c(Br)nn2Cc1ccc(-c2noc(C(F)(F)F)n2)cc1 [compound 30] | – | – | 25 | 0 | – |
| C=CCON=Cc1cnn(Cc2ccc(-c3noc(C(F)(F)F)n3)cc2)c1 [compound 386] | 100 | 100 | – | – | – |
| CC(=O)COC(=O)c1cnn(Cc2ccc(-c3noc(C(F)(F)F)n3)cc2)c1 [compound 349] | – | – | 100 | 100 | – |
| COC(=O)c1ccc2cnn(Cc3ccc(-c4noc(C(F)(F)F)n4)cc3)c2c1 [compound 41] | – | – | 100 | 98 | – |
| FC(F)(F)c1nc(-c2ccc(Cn3cc(I)cn3)cc2)no1 [compound 383] | 71 | 68 | – | – | – |
| CCON=C(C)COC(=O)c1cnn(Cc2ccc(-c3noc(C(F)(F)F)n3)cc2)c1 [compound 221] | – | – | 100 | 95 | – |
| N#Cc1ccc2c(cnn2Cc2ccc(-c3noc(C(F)(F)F)n3)cc2)c1 [compound 106] | – | – | – | – | Test A disease control rating ([1]; test suspension 50 ppm): 100%; Test C disease control rating ([2]; test suspension 50 ppm): 100% |
| CN1CCCC1COC(=O)c1cnn(Cc2ccc(-c3noc(C(F)(F)F)n3)cc2)c1 (stereo not drawn) [compound 340] | – | – | 100 | 94 | – |
| Nc1ncnc2c1cnn2Cc1ccc(-c2noc(C(F)(F)F)n2)cc1 [compound 407] | 100 | 100 | – | – | – |
